Laboratory results from BindingDB's records for aid1799747 (Csar, 2012).

target: T1, UDP-3-O-acyl-N-acetylglucosamine deacetylase (Aquifex aeolicus (strain VF5), UniProt O67648); assay: OctetRed; details: pH 7; 25 °C
T1 sequence (O67648 whole entry): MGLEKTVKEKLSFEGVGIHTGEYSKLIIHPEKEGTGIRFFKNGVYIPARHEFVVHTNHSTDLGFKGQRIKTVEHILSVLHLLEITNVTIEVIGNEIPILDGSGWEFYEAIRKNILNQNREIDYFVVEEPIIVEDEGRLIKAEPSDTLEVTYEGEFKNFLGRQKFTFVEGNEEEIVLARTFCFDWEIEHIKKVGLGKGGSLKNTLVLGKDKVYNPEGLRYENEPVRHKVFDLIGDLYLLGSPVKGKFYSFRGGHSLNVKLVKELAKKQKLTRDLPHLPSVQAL

| Compound | Kd | Ki |
| --- | --- | --- |
| NC[C@H](NC(=O)c1ccc(-c2ccccc2)cc1)C(=O)NO [CS249] | 145 nM | – |
| NC[C@H](NC(=O)c1ccc(-c2ccc(Br)cc2)cc1)C(=O)NO [CS250] | 29 nM | – |
| NC[C@H](NC(=O)c1ccc(C#CC#Cc2ccccc2)cc1)C(=O)NO [CS252] | – | 10 nM |
| C[C@@H](O)[C@H](NC(=O)c1ccc(C#CC#Cc2ccccc2)cc1)C(=O)NO [CS257] | – | 1 nM |
| C[C@@H](O)[C@H](NC(=O)c1ccc(-c2ccc(Br)cc2)cc1)C(=O)NO [CS258] | – | 1 nM |
| C[C@@H](O)[C@H](NC(=O)c1ccc(C#Cc2ccccc2)cc1)C(=O)NO [CS259] | – | 1 nM |
| C[C@@H](O)[C@H](NC(=O)c1ccc(-c2ccccc2)cc1)C(=O)NO [CS263] | 14 nM | – |
| O=C(NO)[C@H]1COC(c2ccc(OC(F)(F)F)c(Cl)c2)=N1 [CS270] | 744 nM | – |
| O=C(NO)[C@H]1COC(c2ccc(F)c(C(F)(F)F)c2)=N1 [CS271] | 443 nM | – |
| O=C(NO)[C@H]1COC(c2cc3cc(F)ccc3[nH]2)=N1 [CS272] | 772 nM | – |
| CCCc1ccc(-c2ccc(C3=N[C@@H](C(=O)NO)CO3)cc2)cc1 [CS274] | 415 nM | – |
| O=C(NO)c1csc(-c2ccc(OC(F)(F)F)c(Cl)c2)n1 [CS275] | 1820 nM | – |
